Consider 7 compounds from ChEMBL document CHEMBL1201862, “PubChem BioAssay data set” (2004).

Holding throughout (experiment): NCI tumour cell line growth inhibition, 48 h
Assay [1] deals with NCI/ADR-RES.
The test system of assay [2] is SNB-75.
Assay [3] concerns BT-549.
Assay [4] deals with T47D.
Assay [5] has as its system EKVX.
Assay [6] deals with SN12C.
Assay [7] concerns U-251.
For assay [8], the system named is SW-620.
The test system of assay [9] is SK-OV-3.
Assay [10] deals with Hs-578T.
Assay [11] concerns MOLT-4.
In assay [12] the test system is CCRF-CEM.
Assay [13] concerns HT-29.
Assay [14] has as its system SK-MEL-28.
Assay [15] relates to A498.
Assay [16] concerns A549.
The test system of assay [17] is LOX IMVI.
The subject of assay [18] is MCF7.
In assay [19] the test system is HOP-62.
Assay [20] relates to SK-MEL-2.

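Cultured in 96-well plates, cells were exposed to test compound for 48 hours across five concentrations. Abbreviation: GI50, concentration required for 50% inhibition of growth.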 Calls of active or inactive are those of the source. Rule as the data show it: active = GI50 up to about 1.1 µM and inactive = higher. Bounds are passed on as bounds.

With `O=C1Nc2cccc(C(F)(F)F)c2/C1=N/Nc1ccccc1[N+](=O)[O-]`, the GI50 was 30.8 µM (inactive) in [1]; 25.6 µM (inactive) in [2]; > 100 µM (inactive) in assay [3]; 56.6 µM (inactive) in [4]; 11.6 µM (inactive) in assay [5]; 23.4 µM (inactive) in assay [6]. Also, the GI50 in assay [7] is 21 µM (inactive); in assay [8], 33 µM (inactive); in assay [9] it was 30.2 µM (inactive); in assay [10] it was 27.3 µM (inactive); in assay [11], 28.6 µM (inactive); in assay [12] it was 40.6 µM (inactive). Also, the GI50 in assay [13] is 36.4 µM (inactive); in assay [14], 63.5 µM (inactive); in assay [15], 0.836 µM (active); in assay [16] it was 48 µM (inactive); in assay [17] it was 17.1 µM (inactive); in assay [18] it was 14.4 µM (inactive). In addition, the values for the GI50 in assay [19] and in [20] were 25.1 µM (inactive) and > 100 µM (inactive), respectively.

Regarding `CCOC(=O)C[n+]1cccc(C2(c3cc4ccccc4[nH]3)OCCO2)c1`, the GI50 in assay [1], in [2], in assay [3], in assay [4], in [5] and in assay [7] was > 100 µM (inactive) in each case. Besides, the GI50 in assay [8], in assay [9], in [10], in assay [11], in assay [12] and in [13] was > 100 µM (inactive) each time. The GI50 in assay [14], in assay [15], in assay [16], in assay [17], in [18] and in assay [19] was > 100 µM (inactive) throughout. Moreover, the GI50 in assay [20] was > 100 µM (inactive).

With `Clc1ccc(C2=Cc3nc2c(-c2ccccc2)c2ccc([nH]2)c(-c2ccccc2)c2nc(c(-c4ccccc4)c4ccc([nH]4)c3-c3ccccc3)C=C2)cc1`, the GI50 is > 62.5 µM (inactive) in [1]; 32.9 µM (inactive) in assay [2]; > 62.5 µM (inactive) in assay [3]; > 62.5 µM (inactive) in [4]; > 62.5 µM (inactive) in assay [5]; > 62.5 µM (inactive) in assay [6]. Further, the GI50 in [7], in assay [8], in assay [9], in assay [10], in [11] and in assay [12] was > 62.5 µM (inactive) in each case. Moreover, the GI50 in assay [13], in assay [14], in assay [15], in [16], in [17] and in assay [18] was > 62.5 µM (inactive) throughout. The GI50 in [19] and in assay [20] was > 62.5 µM (inactive) in each case.

Regarding `COc1cc2c[n+](C)c3c4cc(OC)c(OC)cc4c(OC)cc3c2cc1OC`, the GI50 was > 100 µM (inactive) in [1]; 7.91 µM (inactive) in assay [2]; 3.92 µM (inactive) in [3]; 1.85 µM (inactive) in [4]; > 74.1 µM (inactive) in assay [5]; 0.188 µM (active) in [6]. In addition, the GI50 in [7] is 2.38 µM (inactive); in assay [8], 7.69 µM (inactive); in assay [9], 42.2 µM (inactive); in assay [10], 1.44 µM (inactive); in assay [12] it was 6.1 µM (inactive); in assay [13] it was 5.48 µM (inactive). Also, the GI50 in [14] is 6.43 µM (inactive); in assay [15] it was > 100 µM (inactive); in assay [16], > 65.3 µM (inactive); in assay [17] it was 16.7 µM (inactive); in assay [18], 2.17 µM (inactive); in assay [19], 16.4 µM (inactive). Further, the GI50 in assay [20] was 15.8 µM (inactive).

`O=[N+]([O-])c1ccc(Cl)c(CNc2ncnc3c2ncn3C2CCCCO2)c1` (stereo not given): the GI50 was 25.1 µM (inactive) in [1]; 43.6 µM (inactive) in [2]; 41.2 µM (inactive) in assay [3]; 55.3 µM (inactive) in assay [4]; 77.1 µM (inactive) in assay [5]; 29.6 µM (inactive) in assay [6]. The GI50 in [7] was 32.5 µM (inactive); in assay [8], 35 µM (inactive); in assay [9], 36.5 µM (inactive); in [10] it was > 100 µM (inactive); in assay [11], 26.1 µM (inactive); in [13], 32.4 µM (inactive). Besides, the GI50 is 89.5 µM (inactive) in assay [14]; 12.4 µM (inactive) in assay [15]; 41.7 µM (inactive) in assay [16]; 56.4 µM (inactive) in [17]; 17.1 µM (inactive) in assay [18]; 48.4 µM (inactive) in assay [19]. In [20], the GI50 is 28.5 µM (inactive).

`O=C1Nc2cc(Cl)ccc2C(=O)N2CCC[C@@H]12`: the GI50 in assay [1], in assay [2], in assay [3], in assay [4], in assay [5] and in [6] was > 100 µM (inactive) in each case. For the same compound, the GI50 in [7] is > 100 µM (inactive); in assay [8], > 100 µM (inactive); in [9], > 100 µM (inactive); in [10] it was 33.5 µM (inactive); in assay [12] it was > 100 µM (inactive); in assay [13], > 100 µM (inactive). Also, the GI50 in assay [14], in [15], in assay [16], in [17], in assay [18] and in assay [19] was > 100 µM (inactive) each time. Also, the GI50 in assay [20] is > 100 µM (inactive).

Consider `O=C(CN1C(=O)c2ccccc2C1=O)OCC1CCCN2CCCCC12` (stereo not given), for which the GI50 in [1], in [2], in [3], in assay [4], in assay [5] and in assay [6] was > 100 µM (inactive) throughout. The GI50 in [7], in assay [8], in assay [9], in [10], in assay [11] and in [12] was > 100 µM (inactive) in each case. Also, the GI50 in assay [13], in assay [14], in assay [15], in assay [16], in assay [17] and in assay [18] was > 100 µM (inactive) throughout. Besides, the GI50 in assay [20] is > 100 µM (inactive).
